Values quoted from earlier work as cited in US6241994A, “Solid TCMTB formulations” (Buckman Laboratories International, Inc., priority 1998, dated 2001).

Columns and labels:
[1] = for pH above which the substance decomposes: decomposition at a pH above the value
[2] = unstable at temperatures greater than the value

solubility in water (in water) | SMILES | solubility in most of organic solvents (most of organic solvents) | stability in acidic systems ([1]; acidic systems, ambient temperature) | pH above which the substance decomposes [1] | temperature above which considered unstable [2]
– | N#CSCSC#N [MTC, methylene bisthiocyanate] | soluble | stable | above 7.5 | greater than 100 °C
about 0.033 g/l | N#CSCSc1nc2ccccc2s1 [TCMTB, 2-(thiocyanomethylthio)-benzothiazole] | – | – | above 8.0 | –
